Laboratory results taken from PMC10045663, “Synthesis, In Vitro Biological Evaluation of Antiproliferative and Neuroprotective Effects and In Silico Studies of Novel 16E-Arylidene-5α,6α-epoxyepiandrosterone Derivatives” (Biomedicines, 2023).
“Also recorded” adds a separate entry of the source.

Tests used:
[1] = system: T47-D cells (breast cancer); parameters: method as in PMID 23635011; details: MTT assay, read-out: IC50 against T47-D cells; cited from earlier work
[2] = system: MCF-7 cells (estrogen-responsive breast cancer cells); assay: MTT cell proliferation assay, MCF-7 cells; format: cell-based; details: MTT, 72 h, tumoral cells; read-out: Estimated IC50, MCF-7
Procedure: (§1) LNCaP, PC-3, MCF-7, PNT1A, N27, and NHDF cells were obtained from the American Type Culture Collection (ATCC; Manassas, VA, USA) and were cultured in 75 cm^2 culture flasks at 37 °C in a humidified air incubator with 5% CO2. LNCaP, PC-3, PNT1A, and N27 cells, respectively, were cultured in RPMI 1640 medium (Sigma-Aldrich, Inc. St. Louis, MO, USA) with 10% fetal bovine serum (FBS; Sigma-Aldrich, Inc. St. Louis, MO, USA) and 1% of the antibiotic mixture of 10,000 U/mL penicillin G and […] streptomycin (Sp, Sigma-Aldrich, Inc. St. Louis, MO, USA). MCF-7 cells were cultured in DMEM medium (Sigma-Aldrich, Inc. St. Louis, MO, USA) supplemented with 10% fetal bovine serum (FBS; Sigma-Aldrich, Inc. St. Louis, MO, USA) and 1% antibiotic/antimycotic (10,000 U/mL penicillin G, […] streptomycin, and 25 µg/mL amphotericin B: Ab, Sigma-Aldrich, Inc. St. Louis, MO, USA). Finally, NHDF cells were cultured in RPMI 1640 medium supplemented with 10% FBS, 2 mM L-glutamine, 10 mM HEPES, 1 mM sodium pyruvate, and 1% of the antibiotic/antimycotic Ab, and these cells were used in passages 10th to 14th. For all cell types, the medium was renewed every 2 days until cells nearly reached the confluence state. When cells reach approximately 90–95% confluence, they are gently detached by trypsinization (trypsin-EDTA solution: 0.125 g/L of trypsin and 0.02 g/L of EDTA). Before each experiment, viable cells were counted in a Neubauer chamber by a trypan-blue exclusion assay and adequately diluted in the appropriate complete cell culture medium.
(§2) All tested compounds were dissolved in dimethyl sulfoxide (DMSO; Sigma-Aldrich, Inc. St. Louis, MO, USA) at a concentration of 10 mM and stored at 4 °C. From the mother-solutions, the diluted solutions of the compounds, in different concentrations, were prepared in the respective complete culture medium before each experiment.
(§3) After reaching a confluence state, cells were trypsinized and counted by the trypan-blue exclusion assay and then seeded with an initial density of 2 × 10^4 cells/mL in 96-well culture plates (Nunc, Apogent, Denmark) and left to adhere and grow for 48 h. Subsequently, the medium was removed, and the cells were treated with compound solutions (10 and 50 µM for preliminary studies and 0.01, 0.1, 1, 10, 50, and 100 µM for concentration-response studies) in complete culture medium for 72 h. 5-Fluorouracil (5-FU) was used as a positive control, and untreated cells were used as the negative control. Compounds leading to cell proliferation relative to control clearly below 50%, at 10 µM, or clearly below 25%, at 50 µM, in the screening studies were selected to concentration-response studies in tumoral cell lines. Each experiment was performed in quadruplicate and independently at least two times. The in vitro antiproliferative effects were evaluated by the MTT assay (Sigma-Aldrich, Inc. St. Louis, MO, USA). After the incubation period, the medium was removed, and 100 µL of phosphate buffer saline (PBS, NaCl 137 mM; KCl 2.7 mM; Na2HPO4 10 mM; and KH2PO4 1.8 mM in deionized water with a pH adjusted to 7.4) were used to wash the cells. Then, 100 µL of the MTT solution (5 mg/mL) was prepared in the appropriate serum-free medium and added to each well, followed by incubation for 4 h at 37 °C. Hereafter, the MTT containing medium was removed, and the formazan crystals were dissolved in DMSO. Then, the absorbance was measured at 570 nm using a xMarkTM microplate spectrophotometer from BIO-RAD Laboratories. Cell viability values were expressed as percentages relative to the negative control.

[3] = system: LNCaP cells (androgen-dependent prostatic cancer); assay: MTT cell proliferation assay, LNCaP cells; format: cell-based; details: 72 h
Procedure: as §1, §2, §3

[4] = system: N27 (rat dopaminergic neuronal cells); assay: MTT cell proliferation assay, N27 cells; format: cell-based; details: 72 h, non-tumoral cells, read-out: Estimated IC50, N27
Procedure: as §1, §2, §3

[5] = system: NHDF cells (normal human dermal fibroblasts); assay: MTT cell proliferation assay, NHDF cells; format: cell-based; details: 72 h, non-tumoral cells, read-out: Estimated IC50, NHDF
Procedure: as §1, §2, §3

[6] = system: all cell lines (NHDF, PNT1A, N27, LNCaP, PC-3, MCF-7); assay: MTT preliminary screening, all cell lines taken together; format: cell-based; details: 50 µM, 72 h
Procedure: as §1, §2, §3

N27 cells [7] = assay: Neuroprotection against 6-OHDA-induced toxicity (MTT); format: cell-based, rat; details: 24 h; for protection against 6-OHDA-induced neurotoxicity: 10 and 50 µM together with 50 µM 6-OHDA
Procedure: (§4) The immortalized rat mesencephalic dopaminergic cell line (N27 cells; a kind gift from Dr. Yoon-Seong Kim, Burnett School of Biomedical Sciences, University of Central Florida) was grown in Roswell Park Memorial Institute (RPMI) 1640 medium (Sigma-Aldrich) containing 2 g/L sodium bicarbonate, 10% fetal bovine serum (FBS; Millipore), and 1 mL/L of penicillin/streptomycin (GIBCO) in a humidified atmosphere of 5% CO2 at 37 °C. Cells were plated at a density of 0.31 × 10^5 cells per cm^2 in 96-well culture plates. In the MTT assay, N27 cells were incubated in the presence of several compounds with 50 μM of 6-OHDA. To assess cell viability, MTT reduction was performed as previously described (Section 2.3) with some modifications. Briefly, after 24 h of cell treatments, 0.5 mg/mL of MTT was added to cells for 4 h at 37 °C. Then, the resultant precipitate was dissolved in 10% SDS and quantified at a wavelength of 570 nm.

[8] = system: PNT1A (normal prostate cells); assay: MTT cell proliferation assay, PNT1A cells; format: cell-based; details: 72 h, non-tumoral cells, read-out: Estimated IC50, PNT1A
Procedure: as §1, §2, §3

N27 cells [9] = assay: N27 cell viability after 24 h (MTT), substance alone; format: cell-based, rat; details: for effect on N27 cell viability: 10 µM alone; for fold-increase in cell viability compared to 10 µM of the respective compound / fold-increase in cell viability compared to the control: 50 µM alone
Procedure: as §4, with “In the MTT assay, N27 cells were incubated in the presence of several compounds with 50 μM of 6-OHDA.” left out

[10] = system: PC-3 cells (androgen-independent prostatic cancer); assay: MTT cell proliferation assay, PC-3 cells; format: cell-based; details: PC-3, 50 µM, 72 h
Procedure: as §1, §2, §3

Compound | IC50 [1] | IC50 [2] | effect on LNCaP cell proliferation ([3]; LNCaP, 10 µM) | decrease in LNCaP cell proliferation ([3]; LNCaP, 50 µM) | IC50 ([3]; MTT, tumoral cells, read-out: Estimated IC50, LNCaP) | IC50 [4] | IC50 [5] | relative cell proliferation [6] | fold-decrease in cell viability compared to 6-OHDA alone (N27 cells [7]; 50 µM together with 50 µM 6-OHDA) | protection against 6-OHDA-induced neurotoxicity (N27 cells [7]) | IC50 [8] | effect on N27 cell viability (N27 cells [9]) | fold-increase in cell viability compared to 10 µM of the respective compound (N27 cells [9]) | fold-increase in cell viability compared to the control (N27 cells [9]) | decrease on cell proliferation relative to the control [10]
CC12CCC3C(CC=C4CC(O)CCC43C)C1C/C(=C\c1ccc([N+](=O)[O-])cc1)C2=O (stereo not drawn) [Compound 4, (E)-16-(4-Nitrobenzylidene)-3-hydroxy-10,13-dimethyl-1,3,4,7,8,9,10,11,12,13,15,16-dodecahydro-2H-cyclopenta[α]phenanthren-17(14H)-one] | > 100 µM |  |  |  |  |  |  |  |  |  |  |  |  |  | 
CC12CCC3C(CC=C4CC(O)CCC43C)C1C/C(=C\c1ccc(Cl)cc1Cl)C2=O (stereo not drawn) [Compound 9, (E)-16-(2,4-Dichlorobenzylidene)-3-hydroxy-10,13-dimethyl-1,3,4,7,8,9,10,11,12,13,15,16-dodecahydro-2H-cyclopenta[α]phenanthren-17(14H)-one] | > 100 µM |  |  |  |  |  |  |  |  |  |  |  |  |  | 
CC12CCC3C(CC4OC45CC(O)CCC35C)C1CC(=Cc1ccc(Cl)o1)C2=O (stereo not drawn) [Compound 27, (E)-16-[(5-Chlorofuran-2-yl)methylene]-3-hydroxy-5α ,6α -epoxy-10,13-dimethyl-1,3,4,7,8,9,10,11,12,13,15,16-dodecahydro-2H-cyclopenta[α ]phenanthren-17(14H)-one] |  | 56.9 µM | no relevant effects | higher than 75% | 15.8 µM | 42.4 µM | 18.4 µM | ≤ 50% | 0.9 fold | did not counteract; also recorded: no significant neuroprotection | 19.5 µM | did not affect cell viability | 1.41 fold | 1.25 fold | 
CC12CCC3C(CC4OC45CC(O)CCC35C)C1CC(=Cc1ccc([N+](=O)[O-])cc1)C2=O (stereo not drawn) [Compound 17, (E)-16-(4-Nitrobenzylidene)-3-hydroxy-5α ,6α -epoxy-10,13-dimethyl-1,3,4,7,8,9,10,11,12,13,15,16-dodecahydro-2H-cyclopenta[α ]phenanthren-17(14H)-one] |  | 20.8 µM |  |  |  | > 100 µM | 32.3 µM |  |  | did not counteract; also recorded: no significant neuroprotection | > 100 µM | did not affect cell viability | 1.59 fold | 1.53 fold | 
C[C@]12CC[C@H]3[C@@H](C[C@@H]4O[C@@]45C[C@@H](O)CC[C@]35C)[C@@H]1C/C(=C\c1ccco1)C2=O [Compound 20, (E)-16-(Furan-2-ylmethylene)-3-hydroxy-5α ,6α -epoxy-10,13-dimethyl-1,3,4,7,8,9,10,11,12,13,15,16-dodecahydro-2H-cyclopenta[α ]phenanthren-17(14H)-one] |  |  |  |  |  | 64.5 µM | 50 µM |  |  | did not counteract; also recorded: no significant neuroprotection | 56.6 µM | did not affect cell viability |  |  | higher than 75%
